Data from US9765037B2, “Compositions and methods for treating toxoplasmosis, cryptosporidiosis, and other apicomplexan protozoan related diseases” (University of Washington Through its Center for …, priority 2010, dated 2017).
Read-outs that look alike come from different tables or passages of the source.

Assays:
[1] = molecular target: PfCDPK1 (Plasmodium falciparum (isolate 3D7), UniProt P62344); experiment: biochemical
[2] = molecular target: PfCDPK4 (Plasmodium falciparum (isolate 3D7), UniProt Q8IBS5); experiment: biochemical
[3] = molecular target: TgCDPK1 (Toxoplasma gondii, UniProt Q9BJF5); assay type: biochemical
Chain of TgCDPK1 (Q9BJF5 1-507): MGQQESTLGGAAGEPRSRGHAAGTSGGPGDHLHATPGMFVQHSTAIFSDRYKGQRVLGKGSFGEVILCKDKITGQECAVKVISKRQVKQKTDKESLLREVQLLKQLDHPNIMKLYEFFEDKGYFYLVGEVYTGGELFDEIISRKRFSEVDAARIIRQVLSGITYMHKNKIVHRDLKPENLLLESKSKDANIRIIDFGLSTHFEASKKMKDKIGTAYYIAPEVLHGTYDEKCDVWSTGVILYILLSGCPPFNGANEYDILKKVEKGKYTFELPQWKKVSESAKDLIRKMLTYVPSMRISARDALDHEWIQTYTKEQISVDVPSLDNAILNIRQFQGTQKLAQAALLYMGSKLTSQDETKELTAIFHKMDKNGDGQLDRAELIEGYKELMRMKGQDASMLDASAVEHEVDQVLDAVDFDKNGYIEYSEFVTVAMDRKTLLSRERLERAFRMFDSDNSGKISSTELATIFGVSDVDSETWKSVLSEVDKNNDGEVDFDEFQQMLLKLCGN

[4] = test system: human promyelocytic leukemia (HL-60); experiment: Growth inhibition of human cell line HL-60
[5] = test system: human lymphocyte (CRL8155); experiment: Growth inhibition of human cell line CRL8155
[6] = molecular target: CpCDPK1 (Cryptosporidium parvum (strain Iowa II), UniProt A3FQ16); experiment: biochemical; assay type: biochemical; conditions: read-out: IC50 (μM) CpCDPK1
Chain of CpCDPK1 (A3FQ16 1-538): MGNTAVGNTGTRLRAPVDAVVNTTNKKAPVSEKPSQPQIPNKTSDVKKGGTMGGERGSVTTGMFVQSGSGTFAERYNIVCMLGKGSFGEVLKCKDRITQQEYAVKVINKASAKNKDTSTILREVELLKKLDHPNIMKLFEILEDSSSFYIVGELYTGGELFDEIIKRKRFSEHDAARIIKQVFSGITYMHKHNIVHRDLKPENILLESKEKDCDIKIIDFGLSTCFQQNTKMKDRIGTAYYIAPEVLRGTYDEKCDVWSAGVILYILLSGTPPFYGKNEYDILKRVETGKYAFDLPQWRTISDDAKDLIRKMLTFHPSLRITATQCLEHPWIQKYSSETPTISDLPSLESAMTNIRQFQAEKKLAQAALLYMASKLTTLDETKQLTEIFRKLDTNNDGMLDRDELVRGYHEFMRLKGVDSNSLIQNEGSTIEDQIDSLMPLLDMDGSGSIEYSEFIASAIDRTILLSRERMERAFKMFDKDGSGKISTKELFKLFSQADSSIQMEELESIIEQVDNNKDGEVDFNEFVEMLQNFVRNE

Row | SMILES | EC50 [1] | EC50 [2] | other results
1 | CC(C)n1nc(-c2ccc3cc(OCc4ccc(C(C)(C)C)cc4)ccc3c2)c2c(N)ncnc21 [Compound 54, 3-(6-(4-tert-butylbenzyloxy)naphthalen-2-yl)-1-isopropyl-1H-pyrazolo[3,4-d]pyrimidin-4-amine] | 47.8 nM | 438 nM | –
2 | COC(=O)Nc1nc2ccc(C(O)c3ccccc3)cc2[nH]1 (stereo not drawn) [Compound 82] | > 3000 nM | > 3000 nM | –
3 | Cc1ccc(C)c(COc2ccc3cc(-c4nn(C(C)C)c5ncnc(N)c45)ccc3c2)c1 [Compound 48, 3-(6-(2,5-dimethylbenzyloxy)naphthalen-2-yl)-1-isopropyl-1H-pyrazolo[3,4-d]pyrimidin-4-amine] | 2280 nM | > 3000 nM | –
4 | CC(C)n1nc(-c2cccc(-c3ccccc3)c2)c2c(N)ncnc21 [Compound 7z, 3-(biphenyl-3-yl)-1-isopropyl-1H-pyrazolo[3,4-d]pyrimidin-4-amine] | – | – | inhibition of TgCDPK1 (in words) [3]: neither kinase is inhibited; IC50 ([3]; read-out: IC50 (μM) TgCDPK1): 2.23 µM
5 | O=C(NCCO)Nc1nc2ccc(C(=O)c3ccccc3)cc2[nH]1 [Compound 90] | – | – | Cell Toxicity HL60, % at 10 μM [4]: <30% at 10 μM; Cell Toxicity CRL8155, % at 10 μM [5]: <30% at 10 μM
6 | Cc1ccccc1COc1ccc2cc(-c3nn(C(C)C)c4ncnc(N)c34)ccc2c1 [Compound 49, 1-isopropyl-3-(6-(2-methylbenzyloxy)naphthalen-2-yl)-1H-pyrazolo[3,4-d]pyrimidin-4-amine] | 688 nM | 2350 nM | –
7 | Nc1ncnc2c1c(-c1ccc3nccnc3c1)nn2CC1CCNCC1 [Compound 122] | 482 nM | > 3000 nM | Cell Toxicity HL60, % at 10 μM [4]: <30% at 10 μM; Cell Toxicity HL60, % at 30 μM ([4]; 30 μM): <30% at 30 μM; Cell Toxicity CRL8155, % at 10 μM [5]: <30% at 10 μM; Cell Toxicity CRL8155, % at 30 μM ([5]; 30 μM): <30% at 30 μM
8 | CC(Oc1ccc2cc(-c3nn(C(C)C)c4ncnc(N)c34)ccc2c1)c1ccccc1 (stereo not drawn) [Compound 53, 1-isopropyl-3-(6-(1-phenylethoxy)naphthalen-2-yl)-1H-pyrazolo[3,4-d]pyrimidin-4-amine] | 532 nM | 1640 nM | –
9 | Cn1ccc2cc(-c3nn(CC4CCNCC4)c4ncnc(N)c34)ccc21 [Compound 57, 3-(1-methyl-1H-indol-5-yl)-1-(piperidin-4-ylmethyl)-1H-pyrazolo[3,4-d]pyrimidin-4-amine] | 705 nM | 243 nM | –
10 | COc1ccc(-c2nn(C(C)C)c3ncnc(N)c23)cc1 [Compound 7j, 1-isopropyl-3-(4-methoxyphenyl)-1H-pyrazolo[3,4-d]pyrimidin-4-amine] | – | – | IC50 [6]: 0.41 µM; inhibition at 3 µM ([1]; read-out: PfCDPK1 (% inhibition @ 3 uM)): 87%; inhibition at 3 µM ([2]; read-out: PfCDPK4 (% inhibition @ 3 uM)): 30%
11 | CC(C)n1nc(-c2ccc3cc(OC(=O)c4cccc(Cl)c4)ccc3c2)c2c(N)ncnc21 [Compound 85] | 229 nM | 479 nM | –
12 | CN(C)c1ccc2cc(-c3nn(CC4CCNCC4)c4ncnc(N)c34)ccc2n1 [Compound 68, 6-(4-amino-1-(piperidin-4-ylmethyl)-1H-pyrazolo[3,4-d]pyrimidin-3-yl)-N,N-dimethylquinolin-2-amine] | – | – | IC50 ([6]; Table 8): > 3 µM
13 | CC(C)n1nc(-c2ccc3cc(OCc4ccc(Cl)cc4)ccc3c2)c2c(N)ncnc21 [Compound 56, 3-(6-(4-chlorobenzyloxy)naphthalen-2-yl)-1-isopropyl-1H-pyrazolo[3,4-d]pyrimidin-4-amine] | 1140 nM | 888 nM | IC50 ([6]; Table 8): 0.105 µM
14 | CC(C)n1nc(-c2ccc3cc(OCc4ccc(CC(F)(F)F)c(Cl)c4)ccc3c2)c2c(N)ncnc21 [Compound 51, 3-(6-(3-chloro-4-(2,2,2-trifluorethyl)benzyloxy)naphthalen-2-yl)-1-isopropyl-1H-pyrazolo[3,4-d]pyrimidin-4-amine] | 1600 nM | 260 nM | –
15 | CC(C)(C)n1nc(-c2ccc3oc(-c4ccccc4)nc3c2)c2c(N)ncnc21 [Compound 131] | 266 nM | > 3000 nM | –
16 | CC(C)n1nc(-c2ccc3cc(OCc4cccc(Cl)c4)ccc3c2)c2c(N)ncnc21 [Compound 47, 3-(6-(3-chlorobenzyloxy)naphthalen-2-yl)-1-isopropyl-1H-pyrazolo[3,4-d]pyrimidin-4-amine] | 1290 nM | 1430 nM | IC50 ([6]; Table 8): 0.272 µM
17 | Nc1ncnc2c1c(Cc1cccc3ccccc13)nn2C1CCCCC1 [Compound 5f, 1-cyclohexyl-3-(naphthalen-1-ylmethyl)-1H-pyrazolo[3,4-d]pyrimidin-4-amine] | – | – | IC50 ([3]; read-out: IC50 (μM) TgCDPK1): 0.946 µM; IC50 ([3]; read-out: TgCDPK1 IC50): 1 µM
18 | CC(C)COc1ccc2cc(-c3nn(C(C)C)c4ncnc(N)c34)ccc2c1 [Compound 43, 3-(6-isobutoxynaphthalen-2-yl)-1-isopropyl-1H-pyrazolo[3,4-d]pyrimidin-4-amine] | 278 nM | 1200 nM | –
